# Legend:
# Type in all cases: cell-based, mouse
# [1] = test system: TLR4 signaling (LPS-induced IL-1β, MIP-1β, IFN-β, RANTES mRNA); assay: LPS-induced gene expression in primary murine macrophages, real-time PCR
# Method: FIG. 1. Effect of blocking peptides on the cytokine induction by LPS. Thioglycollate-elicited primary murine macrophages were preincubated in the presence of 40 μMof BP for one hour before stimulation with 10 ng/ml of LPS. (A) Quantitative real-time PCR analysis of gene expression. (B) Secretion of IL-1β and IL-6. Concentration of the cytokines was measured after overnight incubation of the cells in the presence of LPS and the peptides. (C) Sensitivity of the LPS-stimulated expression of IFN-β and IL-1β mRNA to varying concentrations of TRAM and MyD88 BP. Total mRNA was isolated 1 hour after LPS stimulation (A and C). *p<0.05; **p<0.01.
# FIG. 6. Effect of mutant TRAM BB loop peptides on LPS-induced activation of IL1-β and IFN-β mRNA. Details of the experiments are as described in the legend for FIG. 1, except for the cells were preincubated with peptides only for 30 minutes.
# C3H/OuJ mice were purchased from the Jackson Laboratory (Bar Harbor, Me.). Thioglycollate-elicited peritoneal macrophages were harvested and cultured in the presence of E. coli K235 LPS or Pam3Cys as described previously (Salkowski et al., 1999, J. Immunol. 164, 1529).
# (§1) Total cellular RNA was extracted from macrophage cultures as described elsewhere and reversed transcribed using AMV Reverse Transcriptase (Promega, Madison, Wis.) and poly-T priming as recommended by the manufacturer. The resulting cDNA was quantified by real time PCR using SYBR Green PCR Master Mix (Applied Biosystems) and ABI Prism 7900HT cycler. Primers for detection of IL-1β, IFN-β, MIP-1β, […]RANTES, and HPRT mRNAs were designed using the Primer Express 2.0 program (Applied Biosystems). Relative gene expression was calculated using ΔCt method with HPRT as a housekeeping gene (1.8̂(CtHPRT−CtGene)) Statistical analysis was performed by one way ANOVA with repeated measures, followed by Dunnett's multiple comparison post hoc test with p≦0.05 chosen as the level of significance.
# Mice with targeted mutations in MyD88 (Kawai et al., 2001, supra; Toshchakov et al., 2002, supra) or TIRAP (Yamamoto et al., 2002, Nature 420, 324) retain the capacity to signal through the MyD88-independent pathway. […] Therefore, the first question we sought to address experimentally is whether interactions of the BB-loops of the TIR domains of these adapters affect protein interactions leading to gene expression. To this end, we designed cell permeable peptides whose sequences correspond to the BB-loops of each adapter molecule and measured the ability of each BP to interfere with the induction of immediate response genes induced via MyD88-dependent and independent pathways. […] All BB-loop-containing peptides exerted an inhibitory effect on LPS-induced expression of MyD88-dependent IL-1β and […], as well as MyD88-independent IFN-β and RANTES mRNA, as measured by real-time PCR (FIG. 1A).
# [2] = test system: TLR4 signaling (LPS-induced phosphorylation of ERK, JNK, p38); assay: LPS-stimulated activation of MAPKs (pERK, pJNK, pP38), Western blot; conditions: 40 μM, 1 h preincubation, LPS 10 ng/ml
# Method: (§2) FIG. 2. Effect of blocking peptides on the LPS-stimulated activation of MAPKs and Tyr701 STAT-1. Ten μg of total protein was loaded per lane. A representative blot of three separate experiments is shown. Other details are given in the Materials and Methods section and legend for FIG. 1.
# (§3) FIG. 4. Comparative effect of BPs on TLR2-vs. TLR4-mediated activation of MAPKs (A) and IL-1β mRNA expression (B). For Western blot analysis, 4.5 x10^6 primary macrophages were preincubated without or with 40 μM BP and stimulated for 30 min with LPS (10 ng/ml) or Pam3Cys (P3C; 150 ng/ml). The results shown are a representative blot of three separate experiments. Experimental details for FIG. 4B are the same as reported in the legend to FIG. 1A.
# FIG. 5. Effect of mutated TRAM BB loop peptides on LPS-induced activation of ERK. Details of the experiment are as in legend for FIG. 4, except for the cells were preincubated with peptides only for 30 minutes.
# (§4) SDS-PAGE and Western blot analysis were performed as described previously (Medvedev et al., 2001, J. Immunol. 167, 2257) with minor modifications. Antibodies for detection of activated MAPKs (pERK, pJNK and pP38) were purchased from Cell Signaling Technology (Beverly, Mass.). IRF-1 was detected using a rabbit polyclonal antibody from Santa-Cruz (Santa Cruz, Calif.). Antibody for detection of tyrosine-701 phosphorylated STAT1 was purchased from Zymed Laboratories (San Francisco, Calif.).
# Using antibodies specific for the phosphorylated (activated) forms of JNK, ERK, and p38, we next sought to examine the effect of BB-loop-containing inhibitory peptides on LPS-stimulated activation of MAPKs. LPS induces quick and transient activation of MAPKs in primary macrophages (FIG. 2A) that was not affected by the addition of CP. […] The TIRAP BP was the weakest BP; all MAPKs were activated in the presence of it, although to a lesser extent when compared to CP.
# [3] = test system: TLR4 signaling (LPS-induced STAT-1 phosphorylation); assay: LPS-induced phosphorylation of STAT-1, Western blot; conditions: 40 μM BP
# Method: as §2, §4
# [4] = test system: TLR4 signaling (IRF-3 dimerization); assay: LPS-induced dimerization of IRF-3, native PAGE; conditions: 100 ng/ml LPS, 1.5 hr
# Method: (§5) FIG. 3. Effect of blocking peptides on activation of IRF-3 and IRF-1. […] Primary mouse macrophages were stimulated with 100 ng/ml of LPS. Seventeen μg of total protein was loaded per lane of the native gel. Other details are as described in the legend for FIG. 1.
# Native PAGE for detection of IRF-3 activation was performed with minor modifications (Iwamura et al., 2001, Genes Cells 6, 375). One×10^7 thioglycollate-elicited cells were plated into a 6 cm dish and washed with PBS to remove non-adherent cells. Primary macrophages were stimulated with 100 ng/ml of LPS for 1.5 hr and lysed in buffer containing 50 mM TRIS-HCl pH 7.5, 150 mM NaCl, 1 mM EDTA, 1% NP-40, 1 mM sodium orthovanadate and 1× Complete protease inhibitor cocktail (Roche, Mannheim, Germany). Lysates were mixed with native lysis buffer (Bio-Rad, Hercules, Calif.) supplemented with 1% deoxycholate. Fifteen to 20 μg protein per lane was electrophoresed on a non-reducing gel and immunoblotted. IRF-3 dimers and monomers were detected using rabbit anti-IRF-3 antibody (Zymed Laboratories) by Western analysis.
# Interferon Regulatory Factors (IRFs) were first identified as important transcriptional mediators of the antiviral immune response (reviewed in Taniguchi et al., 2001, Annu. Rev. Immunol. 19, 623). Later, it was recognized that this family of transcription factors plays an essential role in signal transduction mediated by different TLRs. IRF-1 is regulated transcriptionally by signaling from different TLRs, as well as by cytokines induced by TLR engagement (e.g., IL-1, TNF, and IFN-β) (Fujita et al., 1989, Proc. Natl. Acad. Sci. USA 86, 9936). In contrast, IRF-3 is constitutively expressed in many cell types (Au et al., 1995, Proc. Natl. Acad. Sci. USA 92, 11675). Upon stimulation through TLR4 or TLR3, IRF-3 is phosphorylated at multiple sites in its C-terminus, and this modification enables it to dimerize and translocate to the nucleus where it targets IRF-3-responsive genes (Kawai et al., 2001, supra; Lin et al., 1999, Mol. Cell. Biol. 19, 2465).
# [5] = test system: TLR4 signaling (IRF-1 protein); assay: LPS-induced upregulation of IRF-1 protein, SDS-PAGE/Western; conditions: 100 ng/ml LPS, 1.5 h
# Method: as §5, §4
# Importantly, MyD88 knockout macrophages are capable of inducing IRF-1 mRNA (Yamamoto et al., 2003, supra).
# [6] = test system: TLR2 signaling (Pam3Cys-induced IL-1β mRNA); assay: Pam3Cys-induced cytokine mRNA expression, real-time PCR; conditions: 40 μM, Pam3Cys
# Method: as §3, §1
# Similar to their effect on activation of MAPKs, BPs were much weaker inhibitors with respect to Pam3Cys- vs. LPS-induced expression of IL-1β mRNA.
sequence,measurement,setting,value
RQIKIWFQNRRMKWKKVSDRDVLPGTCVWS (MyD88 blocking peptide) [MyD88-BP],"inhibitory effect on LPS-induced expression of IL-1β, MIP-1β, IFN-β and RANTES mRNA","[1]; 40 μM BP, 1 h preincubation, 10 ng/ml LPS, mRNA 1 h after LPS",comparable or only slightly less inhibitory
same,"IL-1β mRNA expression in LPS-stimulated cells, of the level detected in the presence of the CP","[1]; 40 μM, LPS 10 ng/ml",< 5%
same,"effect on LPS-induced activation (phosphorylation) of MAPKs (ERK, JNK)",[2],strongly blocked
same,inhibition of LPS-induced Tyr701 phosphorylation of STAT-1,[3],highly effective
same,inhibition of LPS-induced dimerization of IRF-3,[4],significantly inhibited
same,effect on LPS-induced upregulation of IRF-1 protein,[5],strongest inhibitors
same,"IL-1β gene expression in Pam3Cys-stimulated cells, of control levels",[6],approximately 25%
same,effect on Pam3Cys-induced expression of IL-1β mRNA,[6],statistically significant inhibitory effect

# Source: patent US20100069297A1, “Selective Inhibition of TLR4 Signaling” (priority 2005, published 2010)
